Where two headings read alike, the source gives them in different places.
How the values were obtained:
[1] = molecular target: T1, AHR (Mus musculus, UniProt P30561); assay: In vitro assay 3: antagonism in mouse cell line (AHR transactivation, firefly luciferase reporter, kynurenic acid prestimulated); type: cell-based; conditions: 200 μM kynurenic acid, 20 hours, read-out: AHR Antagonism Mouse IC50
T1 sequence (P30561 1-848 P471L/N533S/M589L): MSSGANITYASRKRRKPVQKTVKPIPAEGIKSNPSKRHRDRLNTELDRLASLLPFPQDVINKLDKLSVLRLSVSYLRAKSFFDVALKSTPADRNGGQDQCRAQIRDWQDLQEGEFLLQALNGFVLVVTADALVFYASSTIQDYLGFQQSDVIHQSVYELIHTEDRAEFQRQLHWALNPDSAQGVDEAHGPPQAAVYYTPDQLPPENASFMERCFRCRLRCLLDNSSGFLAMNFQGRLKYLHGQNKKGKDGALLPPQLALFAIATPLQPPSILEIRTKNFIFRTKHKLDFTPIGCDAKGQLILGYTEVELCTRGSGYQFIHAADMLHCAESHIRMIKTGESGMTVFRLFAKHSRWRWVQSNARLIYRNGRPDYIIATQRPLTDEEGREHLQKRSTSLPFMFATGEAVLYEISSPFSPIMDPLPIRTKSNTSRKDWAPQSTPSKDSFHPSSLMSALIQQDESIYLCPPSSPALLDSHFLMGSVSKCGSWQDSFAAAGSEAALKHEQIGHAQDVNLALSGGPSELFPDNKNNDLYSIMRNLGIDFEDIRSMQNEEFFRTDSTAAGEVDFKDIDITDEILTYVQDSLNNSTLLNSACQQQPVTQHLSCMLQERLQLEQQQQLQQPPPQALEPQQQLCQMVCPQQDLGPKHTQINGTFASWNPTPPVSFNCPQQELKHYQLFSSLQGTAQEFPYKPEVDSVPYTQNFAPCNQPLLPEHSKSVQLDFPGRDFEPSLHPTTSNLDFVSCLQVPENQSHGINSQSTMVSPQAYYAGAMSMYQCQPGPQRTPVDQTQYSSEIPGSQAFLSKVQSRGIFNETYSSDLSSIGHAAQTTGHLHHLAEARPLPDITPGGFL
In short: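 Cells were first stimulated with kynurenic acid, then exposed to test compound, after which firefly luciferase from a DRE-containing AHR reporter was read out. Signal was scaled between positive and negative controls. Cells not given kynurenic acid provided the inhibition reference.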

[2] = molecular target: T2, AHR (Homo sapiens, UniProt P35869); assay: In vitro assay 1: antagonism in human cell line (AHR transactivation, firefly luciferase reporter, kynurenic acid prestimulated); type: cell-based; conditions: AHR Antagonism Human IC50 [M]
T2 construct: U87 MG glioblastoma cells (ATCC #HTB-14) endogenously expressing AHR; endogenous in cells; host or cells: U87 MG glioblastoma cells (ATCC #HTB-14)
T2 sequence (P35869 11-848): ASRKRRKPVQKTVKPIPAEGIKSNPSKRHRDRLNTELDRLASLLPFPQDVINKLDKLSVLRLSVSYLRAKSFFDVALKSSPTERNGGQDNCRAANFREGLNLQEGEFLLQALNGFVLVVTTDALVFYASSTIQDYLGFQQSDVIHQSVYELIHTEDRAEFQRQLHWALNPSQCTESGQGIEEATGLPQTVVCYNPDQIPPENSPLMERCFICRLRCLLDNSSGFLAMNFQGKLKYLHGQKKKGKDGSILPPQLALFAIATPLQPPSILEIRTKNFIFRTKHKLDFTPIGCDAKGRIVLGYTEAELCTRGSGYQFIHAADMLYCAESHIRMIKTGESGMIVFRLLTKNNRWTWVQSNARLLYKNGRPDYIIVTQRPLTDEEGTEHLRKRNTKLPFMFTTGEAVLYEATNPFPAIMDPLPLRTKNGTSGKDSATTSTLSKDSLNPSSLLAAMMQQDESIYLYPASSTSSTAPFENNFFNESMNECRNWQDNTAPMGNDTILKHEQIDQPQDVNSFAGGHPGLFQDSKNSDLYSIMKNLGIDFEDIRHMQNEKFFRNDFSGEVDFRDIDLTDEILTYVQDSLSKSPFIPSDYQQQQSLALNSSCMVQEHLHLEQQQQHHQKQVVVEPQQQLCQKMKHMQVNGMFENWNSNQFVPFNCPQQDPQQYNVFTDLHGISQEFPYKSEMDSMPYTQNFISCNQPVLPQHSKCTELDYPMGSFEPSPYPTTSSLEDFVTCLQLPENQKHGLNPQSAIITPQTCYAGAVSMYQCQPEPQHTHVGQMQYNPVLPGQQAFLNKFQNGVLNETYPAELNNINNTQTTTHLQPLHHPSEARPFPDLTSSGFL
In short: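 U87 MG + DRE-firefly/constitutive-Renilla stable reporters; kynurenic acid prestim; dual-luc read; Renilla = tox; normalized vs pos/neg controls (pos: 150 μM KYNA + 5 μM staurosporine).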

[3] = Hepa 1c1c7 cells, firefly luciferase reporter

SMILES | IC50 ([1]; mouse Hepa 1c1c7 cells) | IC50 [2] | IC50 [1, 3] | IC50 ([2]; firefly luciferase reporter)
COc1ccc(-c2nc3c4cccc(Br)c4nc(N[C@H](C)C(=O)NCCN4CCN(C(=O)OC(C)(C)C)CC4)n3n2)cc1 [Example 890, tert-butyl 4-[2-({N-[7-bromo-2-(4-methoxyphenyl)[1,2,4]triazolo[1,5-c]quinazolin-5-yl]-D-alanyl}amino)ethyl]piperazine-1-carboxylate] |  |  | 0.0093 µM | 4.05e-09 M
Cc1sccc1-c1nc2c3ccccc3nc(N[C@H]3CCCCNC3=O)n2n1 [Example 347] | 0.00428 µM | 1.17e-07 M |  | 
COc1ccc(-c2nc3c4c(OC)cccc4nc(N[C@@H]4CCCCNC4=O)n3n2)cc1 [Example 245, (3R)-3-{[10-methoxy-2-(4-methoxyphenyl)[1,2,4]triazolo[1,5-c]quinazolin-5-yl]amino}azepan-2-one] | 0.31 µM | 3.21e-08 M |  | 
O=C1NCCCC[C@H]1Nc1nc2ccccc2c2nc(-c3ccc(OC4CC4)cc3)nn12 [Example 612, (3R)-3-({2-[4-(cyclopropyloxy)phenyl][1,2,4]triazolo[1,5-c]quinazolin-5-yl}amino)azepan-2-one] | 0.00123 µM | 1.32e-09 M |  | 
N#Cc1cccc2c1nc(N[C@@H]1CNCCNC1=O)n1nc(-c3cn[nH]c3)nc21 [Example 935, 5-{[(6R)-5-oxo-1,4-diazepan-6-yl]amino}-2-(1H-pyrazol-4-yl)[1,2,4]triazolo[1,5-c]quinazoline-7-carbonitrile] |  |  | 1.12 µM | 4.72e-06 M
COc1ccc(-c2nc3c4c(C#N)cccc4nc(N[C@@H]4CCCCNC4=O)n3n2)cc1 [Example 246, 2-(4-methoxyphenyl)-5-{[(3R)-2-oxoazepan-3-yl]amino}[1,2,4]triazolo[1,5-c]quinazoline-10-carbonitrile] | 0.0112 µM | 3.32e-09 M |  | 
Cn1cc(-c2nc3c4ccccc4nc(NC4CCNC4=O)n3n2)cn1 (stereo not shown) [Example 15, 3-{[2-(1-methyl-1H-pyrazol-4-yl)[1,2,4]triazolo[1,5-c]quinazolin-5-yl]amino}pyrrolidin-2-one] | 7.82 µM | 1.78e-05 M |  | 
COc1ccc2nc(N[C@@H]3CCCCNC3=O)n3nc(-c4ccc(F)cc4)nc3c2c1 [Example 239, (3R)-3-{[2-(4-fluorophenyl)-9-methoxy[1,2,4]triazolo[1,5-c]quinazolin-5-yl]amino}azepan-2-one] | 0.0102 µM | 8.92e-09 M |  | 
N#Cc1cccc2c1nc(N[C@@H]1CNCCNC1=O)n1nc(-c3cnn(C4CCC4)c3)nc21 [Example 933, 2-(1-cyclobutyl-1H-pyrazol-4-yl)-5-{[(6R)-5-oxo-1,4-diazepan-6-yl]amino}[1,2,4]triazolo[1,5-c]quinazoline-7-carbonitrile] |  |  | 0.138 µM | 7.39e-08 M
O=C1NCCCC[C@@H]1Nc1nc2ccccc2c2nc(-c3ccccc3OC(F)F)nn12 [Example 471, (3S)-3-({2-[2-(difluoromethoxy)phenyl][1,2,4]triazolo[1,5-c]quinazolin-5-yl}amino)azepan-2-one] | 0.00526 µM | 5.6e-08 M |  | 

More lines, now with the values ahead:

IC50 ([1]; mouse Hepa 1c1c7 cells) | IC50 [2] | IC50 [1, 3] | IC50 ([2]; firefly luciferase reporter) | SMILES
0.269 µM | 1.12e-06 M |  |  | COc1cccc(-c2nc3c4c(C)cccc4nc(N[C@@H]4CNCCNC4=O)n3n2)c1 [Example 289, (6R)-6-{[2-(3-methoxyphenyl)-10-methyl[1,2,4]triazolo[1,5-c]quinazolin-5-yl]amino}-1,4-diazepan-5-one]
0.00986 µM | 1.06e-08 M |  |  | CCNC(=O)[C@@H](C)Nc1nc2ccccc2c2nc(-c3cccc(OC)c3)nn12 [Example 107, N-ethyl-N^2-[2-(3-methoxyphenyl)[1,2,4]triazolo[1,5-c]quinazolin-5-yl]-D-alaninamide]
0.0263 µM | 2.15e-08 M |  |  | CCc1noc(-c2nc3c4ccccc4nc(N[C@@H]4CCCCNC4=O)n3n2)n1 [Example 132, (3R)-3-{[2-(3-ethyl-1,2,4-oxadiazol-5-yl)[1,2,4]triazolo[1,5-c]quinazolin-5-yl]amino}azepan-2-one]
 |  | 0.057 µM | 1.79e-08 M | CCS(=O)(=O)c1cccc2c1nc(N[C@@H]1CNCCNC1=O)n1nc(-c3ccc(OC)cc3)nc21 [Example 940, (6R)-6-{[7-(ethanesulfonyl)-2-(4-methoxyphenyl)[1,2,4]triazolo[1,5-c]quinazolin-5-yl]amino}-1,4-diazepan-5-one]
0.0014 µM | 6.64e-10 M |  |  | CN1CCCC[C@@H](Nc2nc3c(C(F)(F)F)cccc3c3nc(-c4cnn(C)c4)nn23)C1=O [Example 739, (3R)-1-methyl-3-{[2-(1-methyl-1H-pyrazol-4-yl)-7-(trifluoromethyl)[1,2,4]triazolo[1,5-c]quinazolin-5-yl]amino}azepan-2-one]
0.0212 µM | 2.62e-08 M |  |  | Cn1cc(-c2nc3c4cc(Cl)ccc4nc(N[C@@H]4CCCCNC4=O)n3n2)cn1 [Example 236, (3R)-3-{[9-chloro-2-(1-methyl-1H-pyrazol-4-yl)[1,2,4]triazolo[1,5-c]quinazolin-5-yl]amino}azepan-2-one]
0.000887 µM | 9.36e-10 M |  |  | O=C1NCCNC[C@H]1Nc1nc2c(Cl)cccc2c2nc(-c3ccc(F)cc3)nn12 [Example 420, (6R)-6-{[7-chloro-2-(4-fluorophenyl)[1,2,4]triazolo[1,5-c]quinazolin-5-yl]amino]-1,4-diazepan-5-one]
0.000565 µM | 3.55e-09 M |  |  | CC[C@@H](Nc1nc2ccccc2c2nc(-c3cscc3C)nn12)C(N)=O [Example 542]
0.145 µM | 3.48e-06 M |  |  | COc1cccc(-c2nc3c4ccccc4nc(N[C@@H](CCCCNC(=O)OC(C)(C)C)C(N)=O)n3n2)c1 [Example 101, tert-butyl[(5S)-6-amino-5-{[2-(3-methoxyphenyl)[1,2,4]triazolo[1,5-c]quinazolin-5-yl]amino}-6-oxohexyl]carbamate]
0.0164 µM | 1.45e-08 M |  |  | COc1ccc(-c2nc3c4ccc(F)cc4nc(N[C@@H]4CNCCNC4=O)n3n2)cc1 [Example 276, (6R)-6-{[8-fluoro-2-(4-methoxyphenyl)[1,2,4]triazolo[1,5-c]quinazolin-5-yl]amino}-1,4-diazepan-5-one]
0.0238 µM | 1.34e-06 M |  |  | O=C1NCCCC[C@H]1Nc1nc2c(Br)cccc2c2nc(-c3ccccc3OC(F)(F)F)nn12 [Example 208, (3R)-3-({7-bromo-2-[2-(trifluoromethoxy)phenyl][1,2,4]triazolo[1,5-c]quinazolin-5-yl}amino)azepan-2-one]
0.0049 µM | 1.01e-08 M |  |  | COc1cccc(-c2nc3c4ccccc4nc(N[C@H](C)C(=O)N(C)C)n3n2)c1 [Example 110, N^2-[2-(3-methoxyphenyl)[1,2,4]triazolo[1,5-c]quinazolin-5-yl]-N,N-dimethyl-D-alaninamide]
0.0158 µM | 1.42e-08 M |  |  | COc1cccc(-c2nc3c4ccccc4nc(N[C@H](C)C(=O)NCCO)n3n2)c1 [Example 111, N-(2-hydroxyethyl)-N^2-[2-(3-methoxyphenyl)[1,2,4]triazolo[1,5-c]quinazolin-5-yl]-D-alaninamide]
